Patent US6569638B1, “Method for screening compounds for the treatment of neoplasia” (Cell Pathways, Inc, priority 2000, dated 2003)

How the values were obtained:
[1] = test system: PKG in HCT116 colon cancer cells; assay: PKG assay of drug-treated cell lysates; format: cell-based, human; settings: HCT116 cells (β-catenin mutation, no APC mutation)
Description: To test the effect of cGMP-specific PDE inhibition on neoplasia containing the β-catenin mutation, HCT116 colon cancer cells were employed. HCT116 is known to contain the β-catenin mutation, but is known not to contain the APC mutation.
The same procedure is used to grow the HCT116 cells as is used in the SW480 procedure described above. In this experiment, only exisulind and controls were used.

[2] = target: T1, GST-cGB-PDE5 fusion protein (cGMP binding sites of human PDE5A) (Homo sapiens, UniProt O76074); assay: cGMP binding assay (3H-cGMP competition); settings: 3H-cGMP 2 μM, 22° C., 1 hour
T1 construct: made in house; host or cells: E. coli BL21 (DE3)

caspase-3 in SW480 cells = assay: Caspase-3 activity with Ac-DEVD-AFC substrate; format: cell-based, human; settings: 24 hours, sulindac sulfide 200 μM, exisulind 600 μM, Compound A 1 μM, Compound B 10 μM
Procedure: The cells were lysed and the extracts assayed for caspase-3 activity using Ac-DEVD-AFC as the substrate, in the presence or absence of the caspase-3 inhibitor Ac-DEVD-CHO. Caspase-3 activity was calculated by subtracting the AFC fluorescence (excitation; 400 nm, emission; 505 nm) in the presence of Ac-DEVD-CHO from the AFC fluorescence in the absence of Ac-DEVD-CHO.
Protein extracts were then prepared and caspase-3 activity was measured with Ac-DEVD-AFC as the substrate, in the presence or absence of the caspase-3 inhibitor Ac-DEVD-CHO. […] Similar findings were obtained with HCT116 and HT29 cells (data not shown).

[3] = test system: JNK1 in SW480 colon cancer cells; assay: JNK1 immunoprecipitation in vitro kinase assay with GST-c-Jun(1-79); format: cell-based, human; settings: SW480 cells, one hour; sulindac sulfide 50-500 μM, exisulind 100-600 μM, Compound A 0.1-5 μM, Compound B 1-50 μM
Procedure: The cells were lysed, JNK1 immunoprecipitated with an anti-JNK1 antibody, and the immunoprecipitate (“IP”) assayed for in vitro kinase activity with GST-c-Jun(1-79) as the substrate. The experiments were repeated three times with similar results. Fold activation was measured using a Phosphor Imager.
FIG. 1B: SW480 cells were treated with Compound A (1 μM) for the indicated time periods and in vitro JNK1 kinase activity was determined as described above.
FIG. 2A SW480 cells were treated with either DMSO (−) or Compound A, 0.1 μM; dbcGMP, 500 μM; YC-1, 50 μM; MY-5445, 50 μM; dipyridamole, 10 μM or dbcAMP, 500 μM for one hour. The cells were lysed, JNK1 immunoprecipitated, and the IP assayed for in vitro kinase activity as described in FIG. 1A.
FIG. 2B SW480 cells were pre-treated with either DMSO, KT5720 (2 μM) or Rp-8-pCPT-cGMPS (2 μM) for 2 hours and then treated with Compound B (0, 1 or 10 μM) for one hour. The cells were lysed and assayed for JNK1 activation in the IP as described above.
These concentrations were chosen since they provided optimal induction of apoptosis. Endogenous JNK1 was immunoprecipitated with anti-JNK1 antibody and in vitro kinase assays were performed with GST-c-Jun(1-79) as the substrate. […]
However, the precise role of PKG in signal transduction pathways is not known. […] As a control, KT5720 was used as a protein kinase A (“PKA”)-specific inhibitor. SW480 cells were treated with either DMSO, KT5720 (2 μM) or Rp-8-pCPT-cGMPS (2 μM) for 2 hours and then treated with either DMSO or Compound B (1 or 10 μM) for one hour. Cell extracts were collected and assayed for JNK1 activation.

[4] = test system: polyp and normal colonic tissues; assay: Apoptosis rates in paired biopsies of APC patients; format: in vivo, human
COX I = target: T2, COX I (Ovis aries, UniProt P05979); assay: COX I inhibition; format: biochemical, ram; settings: at 100 μM
T2 construct: COX-I purified from ram seminal vesicles; tissue Cayman Chemical; host or cells: ram seminal vesicles

[5] = test system: cGMP-specific PDE from HT29 cell extracts; assay: cGMP-specific PDE inhibition; format: biochemical, human
Procedure: (Thompson, W. J., Teraski, W. L., Epstein, P. M., Strada, S. J., Advances in Cyclic Nucleotide Research, 10:69-92, 1979, which is incorporated herein by reference). In brief, a solution of defined substrate ^3H-cGMP specific activity (0.2 μM; 100,000 cpm; containing 40 mM Tris-HCl (pH 8.0), 5 mM MgCl2 and 1 mg/mL BSA) is mixed with the drug to be tested in a total volume of 400 μl. The mixture is incubated at 30° C. for 10 minutes with isolated PDE of this invention. Reactions are terminated, for example, by boiling the reaction mixture for 75 seconds. After cooling on ice, 100 μl of 0.5 mg/mL snake venom (O. Hannah venom available from Sigma) is added and incubated for 10 minutes at 30° C. This reaction is then terminated by the addition of an alcohol, e.g. 1 mL of 100% methanol. Assay samples are applied to 1 mL Dowex 1-X8 column; and washed with 1 mL of 100% methanol. The amount of radioactivity in the breakthrough and the wash from the column is combined and measured with a scintillation counter. The degree of phosphodiesterase inhibition is determined by calculating the amount of radioactivity in drug-treated reactions and comparing against a control sample (a reaction mixture lacking the tested compound but with drug solvent).

Molt-4 = assay: Neutral red growth inhibition; format: cell-based, human; settings: Molt-4, Leukemia, HCl salt
Procedure: (§1) Compound B's activity is not confined to activity against colon cancer cell lines or animal models of colon cancer. It has a broad range of anti-neoplastic effects in various neoplastic cell lines. Various types of human cancer cell lines were propagated under sterile conditions in RPMI 1640 medium with 10% fetal bovine serum, 2 mM L-glutamine and sodium bicarbonate. To determine growth inhibitory effects of Compound B, cells were seeded in 96-well plates at a density of 1000 cells per well. […] The effect of the drug on tumor cell growth was determined using the neutral red cytotoxicity assay following five days of continuous treatment. Neutral red is a dye that is selectively taken up by viable cells by an ATP-dependent transport mechanism.

RPMI-8226 = assay: Neutral red growth inhibition; format: cell-based, human; settings: RPMI-8226, Myeloma, HCl salt
Procedure: as §1

K-562 = assay: Neutral red growth inhibition; format: cell-based, human; settings: K-562, Leukemia, HCl salt
Procedure: as §1

PANC-1 = assay: Neutral red growth inhibition; format: cell-based, human; settings: PANC-1, Pancreas, HCl salt
Procedure: as §1

[6] = test system: SW-480 colon adenocarcinoma cells; assay: DNA fragmentation (Cell Death Detection ELISA); format: cell-based, human
Procedure: Samples are then analyzed.

T1 sequence (O76074 46-539 limits assumed): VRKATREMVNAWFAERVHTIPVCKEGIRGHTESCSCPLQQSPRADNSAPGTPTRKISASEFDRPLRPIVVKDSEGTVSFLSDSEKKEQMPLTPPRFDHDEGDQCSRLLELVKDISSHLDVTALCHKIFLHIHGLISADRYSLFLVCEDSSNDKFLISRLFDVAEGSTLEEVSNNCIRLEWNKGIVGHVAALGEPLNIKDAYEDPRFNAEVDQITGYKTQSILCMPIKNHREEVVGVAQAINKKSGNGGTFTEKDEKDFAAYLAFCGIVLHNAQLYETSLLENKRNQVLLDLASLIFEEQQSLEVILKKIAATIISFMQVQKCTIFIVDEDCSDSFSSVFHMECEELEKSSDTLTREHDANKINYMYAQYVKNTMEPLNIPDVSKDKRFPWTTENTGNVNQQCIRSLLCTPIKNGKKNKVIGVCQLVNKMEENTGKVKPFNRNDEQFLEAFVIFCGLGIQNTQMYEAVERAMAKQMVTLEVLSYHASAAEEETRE
T2 sequence (P05979 25-600): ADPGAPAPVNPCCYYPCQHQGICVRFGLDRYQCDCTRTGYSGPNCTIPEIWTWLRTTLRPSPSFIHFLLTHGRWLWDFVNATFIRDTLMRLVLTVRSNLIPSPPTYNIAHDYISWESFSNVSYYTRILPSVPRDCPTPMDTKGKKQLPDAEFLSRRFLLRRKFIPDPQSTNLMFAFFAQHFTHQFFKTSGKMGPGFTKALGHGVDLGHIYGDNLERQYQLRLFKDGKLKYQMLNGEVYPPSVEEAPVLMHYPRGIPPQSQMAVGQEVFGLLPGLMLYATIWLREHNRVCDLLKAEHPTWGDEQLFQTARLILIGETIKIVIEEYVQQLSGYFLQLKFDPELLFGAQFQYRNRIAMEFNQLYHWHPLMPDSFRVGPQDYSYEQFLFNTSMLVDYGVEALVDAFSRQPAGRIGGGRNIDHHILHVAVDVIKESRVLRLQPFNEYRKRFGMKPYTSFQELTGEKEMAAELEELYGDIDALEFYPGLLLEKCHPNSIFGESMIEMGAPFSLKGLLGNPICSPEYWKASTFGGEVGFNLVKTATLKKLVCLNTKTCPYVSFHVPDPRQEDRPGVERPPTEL

| SMILES | PKG activity relative to control [1] | competition with cGMP for the cGMP binding sites of GST-cGB-PDE5 [2] | caspase-3 activation (caspase-3 in SW480 cells) | JNK1 activation [3] | apoptosis rates in polyp versus normal colonic tissues [4] | COX I inhibition (COX I) | IC50 [5] [nM] | GI50 (Molt-4) [nM] | GI50 (RPMI-8226) [nM] | GI50 (K-562) [nM] | GI50 (PANC-1) [nM] | EC50 [6] [nM] |
| --- | --- | --- | --- | --- | --- | --- | --- | --- | --- | --- | --- | --- |
| CC1=C(CC(=O)O)c2cc(F)ccc2/C1=C\c1ccc(S(C)(=O)=O)cc1 [exisulind, 5-fluoro-2-methyl-1-(p-methylsulfonylbenzylidene)-3-indenylacetic acid] | phosphorylated to a greater extent than the corresponding controls | None of the PDE5 inhibitors showed any competition with cGMP | led to activation of caspase-3 | activated JNK1 | increased apoptosis rates in polyp, but not normal colonic tissues | – | – | – | – | – | – | – |
| CC1=C(CC(=O)NCc2ccccc2)c2cc(F)ccc2/C1=C\c1ccncc1.Cl [Compound B, (Z)-5-fluoro-2-methyl-(4-pyridylidene)-3-(N-benzyl)indenylacetamide hydrochloride] | – | None of the PDE5 inhibitors showed any competition with cGMP | led to activation of caspase-3 | activated JNK1 | – | less than 25% | 680 | 1600 | 1200 | 1800 | 2200 | 15000 |
